Data: PubChem BioAssay (NCI)
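Growth conditions: 96-well plates. Treatment: test compound, 48 hours, 5 concentrations. Analysis: linear interpolation between bracketing concentrations; unreached endpoints set to highest concentration. GI50 is the concentration that inhibits growth by half. TGI denotes the concentration required for complete inhibition of growth.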

Experiments:
Experiment in all cases: inhibition of tumour cell growth, NCI panel, 48 h
CCRF-CEM leukemia = system: CCRF-CEM leukemia
SK-MEL-28 melanoma = system: SK-MEL-28 melanoma
SK-MEL-5 melanoma = system: SK-MEL-5 melanoma
OVCAR-3 ovarian = system: OVCAR-3 ovarian
COLO 205 colon = system: COLO 205 colon
OVCAR-5 ovarian = system: OVCAR-5 ovarian
LOX IMVI melanoma = system: LOX IMVI melanoma
NCI/ADR-RES ovarian = system: NCI/ADR-RES ovarian
SF-295 CNS = system: SF-295 CNS
MDA-MB-435 = system: MDA-MB-435

Row | Structure (SMILES) | GI50 (CCRF-CEM leukemia) | TGI (CCRF-CEM leukemia) | GI50 (SK-MEL-28 melanoma) | TGI (SK-MEL-28 melanoma) | GI50 (SK-MEL-5 melanoma) | TGI (SK-MEL-5 melanoma) | GI50 (OVCAR-3 ovarian) | TGI (OVCAR-3 ovarian) | GI50 (COLO 205 colon) | TGI (COLO 205 colon) | GI50 (OVCAR-5 ovarian) | TGI (OVCAR-5 ovarian) | GI50 (LOX IMVI melanoma) | TGI (LOX IMVI melanoma) | GI50 (NCI/ADR-RES ovarian) | TGI (NCI/ADR-RES ovarian) | GI50 (SF-295 CNS) | TGI (SF-295 CNS) | GI50 (MDA-MB-435) | TGI (MDA-MB-435)
1 | C[C@@]12CCC[C@@](C)(C(=O)O)C1CC[C@]13C[C@@](O)(CO)[C@](O)(CCC12)C3 (some centres undefined) | > 100 µM | > 100 µM | > 100 µM | > 100 µM | > 100 µM | > 100 µM | > 100 µM | > 100 µM | > 100 µM | > 100 µM | > 100 µM | > 100 µM | > 100 µM | > 100 µM | > 100 µM | > 100 µM | > 100 µM | > 100 µM | > 100 µM | > 100 µM
2 | c1ccc(CN2COc3c(ccc4c3OCN(Cc3ccccc3)C4)C2)cc1 | 0.451 µM | > 100 µM | 1.26 µM | > 100 µM | 0.501 µM | 2.04 µM | 0.64 µM | > 89.8 µM | 1.96 µM | > 42 µM | 0.857 µM | > 100 µM | 0.825 µM | > 100 µM | 0.256 µM | > 100 µM | 0.554 µM | > 100 µM | 1.72 µM | > 100 µM
3 | CCN(CC)c1ccc(C(O)C2=CC(=O)c3ccccc3C2=O)cc1 (centres undefined) | 0.31 µM | – | 1.21 µM | 2.6 µM | 0.914 µM | 2.88 µM | 1.21 µM | 2.75 µM | 1.58 µM | 3.59 µM | 1.94 µM | 3.66 µM | 1.14 µM | 3.66 µM | > 32.9 µM | > 100 µM | 2.23 µM | 7.45 µM | 1.58 µM | 2.99 µM
4 | CC1CCCC(C(O)CC2CC(=O)NC(=O)C2)C1O (centres undefined) | – | > 100 µM | – | > 100 µM | – | > 100 µM | – | > 100 µM | – | > 100 µM | – | > 100 µM | – | > 100 µM | – | > 100 µM | – | > 100 µM | – | > 100 µM
5 | S=C(Nc1ccc(-c2nc3ccccc3[nH]2)cc1)Nc1ccc(-c2nc3ccccc3[nH]2)cc1 | 92 µM | > 100 µM | > 100 µM | > 100 µM | 37.1 µM | > 100 µM | 48.9 µM | > 100 µM | > 100 µM | > 100 µM | > 100 µM | > 100 µM | > 100 µM | > 100 µM | 66.9 µM | > 100 µM | 48.4 µM | > 100 µM | > 100 µM | > 100 µM
6 | N=c1ccn(O)cc1/C=C1/C(=O)Nc2ccccc21 | > 100 µM | > 100 µM | > 100 µM | > 100 µM | > 100 µM | > 100 µM | > 100 µM | > 100 µM | > 100 µM | > 100 µM | > 100 µM | > 100 µM | > 100 µM | > 100 µM | > 100 µM | > 100 µM | > 100 µM | > 100 µM | > 100 µM | > 100 µM
7 | CS(=O)(=O)CCc1cccc(C(=O)c2cnn(-c3ccc(F)cc3)c2N)c1 | > 25 µM | > 25 µM | > 25 µM | > 25 µM | > 25 µM | > 25 µM | > 25 µM | > 25 µM | > 25 µM | > 25 µM | > 25 µM | > 25 µM | > 25 µM | > 25 µM | > 25 µM | > 25 µM | > 25 µM | > 25 µM | > 25 µM | > 25 µM
